From US20240398785A1, “SMALL MOLECULE DRUGS FOR THE INDUCTION OF TRAINED IMMUNITY” (THE UNIVERSITY OF CHICAGO, priority 2023, published 2024)
Counter-ions that a name gives are not always drawn. Like-named read-outs stand apart in the source and are kept apart here.

How the values were obtained:
[1] = tested on: bone marrow-derived macrophages (BMDMs); assay: Chemical inhibition of training (MTA, EGCG, 2DG pre-treatment); format: cell-based, mouse
Protocol: FIG. 3D is a graph of a glycolysis inhibition assay using 1 mM 2DG and measuring TNF-α concentration following Pam3 challenge in cells trained with 10 μM hydrocortisone after 1 h of pre-treatment with PBS or 2DG (n=15). FIGS. 3E-3I are graphs of TNF-α concentration following Pam3 challenge in cells trained with M 5-Fluoroindole-2-Carboxylic Acid (FIG. 3E), Myricetin (FIG. 3F), Nerol (FIG. 3G), Hydroquinone (FIG. 3H), or Fenoterol hydrobromide (FIG. 3I) after pre-treatment with PBS or glycolysis inhibitor, 2DG (n=15). […] All values are expressed as mean±SEM, and statistics were conducted using 2-way ANOVA with Sidak's multiple comparisons test (significance compared with untrained group). *P<0.05, **P<0.01, ***P<0.001, ****P<0.0001, n.s., not significant.
For inhibition studies, BMDMs received inhibitors at specified concentrations 1 h prior to stimulation with training molecules, and inhibitors were present for the entire 24 h training period. […] To test metabolic pathway involvement, cells were pretreated with 1 mM 2′ deoxy-D-glucose.
Upregulation of glycolysis is commonly implicated as one of the underlying mechanisms in the induction of trained immunity.

[2] = tested on: bone marrow-derived macrophages (BMDMs); assay: High-throughput trained immunity screening (TNF-α by HEK-Blue Quanti-Blue assay); settings: Mus musculus, BMDM, read-out: Fold Change (TNF-α production increase over untrained control)
Protocol: High-throughput trained immunity screening: Mature BMDMs were plated at 25,000 cells per well in 45 μL media in 384-well flat-bottomed plates using the Thermo Multidrop Combi liquid handler. Cells were rested overnight at 37° C. and 5% CO2. The following day, training compounds from the Microsource Spectrum Library were added at a volume of 45 nL using the PerkinElmer Janus G3 with Pintools for a final concentration of 1 μM. On day 2, supernatant was removed using the Janus, cells were washed with warm PBS using the Multidrop, and fresh media was added to the cells using the Multidrop. On day 5, cell density was quantified using the IncuCyte imager and software, then cells received media containing 25 ng/mL IFN-7 (BD Biosciences) for 24 hours. On day 6, cells were stimulated with 25 ng/mL Pam3-CSK4 (Invivogen). Supernatant was collected on day 6 and on day 7 following 24 hours of TLR stimulation, and it was stored at −80° C.
To measure TNF-α concentration in the supernatant, a high-throughput Quanti-Blue assay was used. HEK-Blue TNF-α cells (Invivogen) were plated at a density of 25,000 cells per well in 45 μL media (DMEM, 10% HIFBS). 5 μL of supernatant is added to each well using the Janus liquid handler, then the plates were incubated for 24 hours at 37° C. and 5% CO2. The following day, 20 μL of concentrated Quanti-Blue reagent was added to each well using the Combi liquid handler, and the plate was shaken for one minute. Then, the plate incubated at room temperature for 15 minutes before absorbance was measured at 628 nm using the BioTek Synergy NEO 2. All data is represented as a fold change relative to the average of the Pam3 only untrained control (n=20) on each plate.
An additional plate was seeded alongside the screen plates for a manual training assay and ELISA measurement of cytokine secretion to confirm that the BMDMs were behaving as expected. […] On Day 5, each well was imaged using an IncuCyte to quantify cell viability relative to the untrained controls.^20 Furthermore, the cells were checked to see if they maintained a resting phenotype before TLR stimulation by collecting and freezing the supernatant on Day 6 to measure TNF-α concentration after the assay was complete. Trained immunity effects are distinct from innate immune priming, so we checked that the cells maintained a resting phenotype before TLR stimulation by collecting and freezing the supernatant from each of the three screening replicates on Day 6 to measure TNF-α concentration after the assay was complete (FIG. 1F).
For each replicate of the screen, a modified version of the standard 7-day training assay was used.^18 TNF-α concentration was measured using a high throughput Quanti-Blue assay in HEK-Blue TNF-α cells. Concentration is proportional to absorbance measured at 628 nm within the range of the assay. 2,000 small molecules from the MicroSource Spectrum Library were screened.

[3] = tested on: peritoneal cells; assay: Peritoneal lavage spectral flow cytometry 2 h after LPS challenge; format: in vivo, mouse
Protocol: FIG. 4A is a schematic drawing showing a method of screening small molecule inducers of trained immunity in vivo. Mice were injected intraperitoneally (i.p.) with small molecules or vehicle control on days 0, 2, and 4. Mice were challenged with 1 μg lipopolysaccharide (LPS) on day 11 and then bled 1 hour (h) later. […] All values are expressed as mean±SEM, and statistics were conducted using 1-way ANOVA or 2-way ANOVA with multiple comparisons (significance compared with untrained group). *P<0.05, **P<0.01, ***P<0.001, ****P<0.0001, n.s., not significant. All values are expressed as mean±SEM, and statistics were conducted using 1-way ANOVA with two-stage linear step-up procedure (significance compared with untrained group). *P<0.05, **P<0.01, ***P<0.001, ****P<0.0001, n.s., not significant.
To determine which cells were involved, mice were given training injections and challenged as previously described. Then, 2 h after challenge, the mice were sacrificed, and peritoneal cells were collected by lavage. The cells were fixed and stained for intracellular TNF-α and IL-6 and surface costimulatory markers, CD40, CD86, and MHCII. Lineage markers were included for innate immune cells, including neutrophils, eosinophils, monocytes, macrophages, and dendritic cells. The stained cells were then analyzed via spectral flow cytometry.
The activation of these cells and changes to co-stimulatory molecules were then investigated.

[4] = tested on: bone marrow-derived macrophages (BMDMs); assay: In vitro trained immunity assay (ELISA, TLR agonist challenge); format: cell-based, mouse; settings: for IL-6 production following challenge: 100 ng/mL Pam3
Protocol: FIG. 2H is a graph showing TNF-α concentration from BMDMs trained with PBS or hydrocortisone at a concentration of 10 μM followed by challenge with 100 nanograms per milliliter (ng/mL) lipopolysaccharide (LPS) or Pam3 (n=30). […] FIG. 2I is a graph showing TNF-α or interleukin-6 (IL-6) concentration from BMDMs treated with 10 μM hit compounds one hour (hr) prior to 24 hr stimulation with 100 ng/mL Pam3 (n=6). […] All values are expressed as mean±SEM, and statistics were conducted using 1-way ANOVA with Dunnett's multiple comparisons test (significance compared with untrained group). *P<0.05, **P<0.01, ***P<0.001, ****P<0.0001, n.s., not significant.
TNF-α (FIG. 13D) and IL-6 (FIG. 13E) were measured from BMDM cell culture supernatant 24 h following treatment with small molecules or β-glucan.
In vitro trained immunity assay: Mature BMDMs were plated at 10^5 cells per well in 200 L media in 96-well flat-bottomed plates and rested overnight at 37° C. and 5% CO2. The following day, training molecules were added at specified concentrations and incubated for 24 hours. After training, cells were washed with warm PBS and rested for 3 days in fresh media. On day 5, cells received fresh media containing 25 ng/mL IFN-7 (BD Biosciences) for 24 hours. On day 6, cells were stimulated with 100 ng/mL Pam3CSK4 (Invivogen). Cell supernatant was collected 24 hours after stimulation. Supernatants were measured for IL-6 and TNF-α concentrations using ELISA MAX Deluxe kits (BioLegend) according to manufacturer's instructions.
To select an optimal concentration and agonist pairing, a series of ELISAs were performed to validate the training effects.

[5] = glycolysis inhibitor 2-deoxy-D-glucose 1 mM
[6] = peritoneal lavage, 2 h after challenge

Row | Structure (SMILES) | fold induction at 1 µM [2] | further results
1 | O=C(O)c1cc2cc(F)ccc2[nH]1 [5-Fluoroindole-2-carboxylic acid] | 2.47 | training (TNF-α after Pam3) after 2DG pre-treatment [1]: not susceptible to suppression of training
2 | NC(CO)C(=O)NNCc1ccc(O)c(O)c1O (centres unmarked) [Benserazide hydrochloride] | 1.61 | –
3 | CCCC1O[C@@H]2C[C@H]3[C@@H]4CCC5=CC(=O)C=C[C@]5(C)[C@H]4[C@@H](O)C[C@]3(C)[C@]2(C(=O)CO)O1 (some centres unmarked) [Budesonide] | 2.69 | –
4 | CCC(=O)O[C@]1(C(=O)CCl)[C@@H](C)C[C@H]2[C@@H]3CCC4=CC(=O)C=C[C@]4(C)[C@@]3(F)[C@@H](O)C[C@@]21C [Clobetasol propionate] | 2.07 | –
5 | Oc1ccc(Cl)cc1Cc1cc(Cl)ccc1O [Dichlorophene] | 1.61 | –
6 | CC(Cc1ccc(O)cc1)NCC(O)c1cc(O)cc(O)c1 (centres unmarked) [Fenoterol hydrobromide] | 1.62 | training (TNF-α after Pam3) after 2DG pre-treatment [1, 5]: not susceptible to suppression of training
7 | O=c1[nH]c(=O)n([C@H]2C[C@H](O)[C@@H](CO)O2)cc1F [Floxuridine] | 1.6 | –
8 | CC1(C)O[C@@H]2C[C@H]3[C@@H]4C[C@H](F)C5=CC(=O)C=C[C@]5(C)[C@H]4[C@@H](O)C[C@]3(C)[C@]2(C(=O)CO)O1 [Flunisolide] | 2.49 | training (TNF-α after Pam3) after 2DG pre-treatment [1, 5]: significant inhibition of training; training (TNF-α after Pam3) after EGCG pre-treatment ([1]; histone acetyltransferase inhibitor EGCG 15 μM, 10 μM compound): slightly reduce training though statistical significance was not achieved; training (TNF-α after Pam3) after MTA pre-treatment ([1]; methyltransferase inhibitor MTA 500 μM, 10 μM compound): significant inhibition of training; cell count in the peritoneal lavage ([3]; 2 h after challenge): increased cell count; CD86 on eosinophils and small peritoneal macrophages (MFI of CD86+ cells) ([3]; peritoneal lavage): increased amount; MFI of MHCII+ SPMs ([3]; peritoneal lavage): increased; number of TNF-α+ and IL-6+ eosinophils [3, 6]: significant increases
9 | CC1(C)O[C@@H]2C[C@H]3[C@@H]4C[C@H](F)C5=CC(=O)C=C[C@]5(C)[C@@]4(F)[C@@H](O)C[C@]3(C)[C@]2(C(=O)CO)O1 [Fluocinolone acetonide] | 2.28 | –
10 | CC(=O)OCC(=O)[C@@]12OC(C)(C)O[C@@H]1C[C@H]1[C@@H]3C[C@H](F)C4=CC(=O)C=C[C@]4(C)[C@@]3(F)[C@@H](O)C[C@@]12C [Fluocinonide] | 2.29 | –
11 | CC1(C)O[C@@H]2C[C@H]3[C@@H]4CCC5=CC(=O)CC[C@]5(C)[C@@]4(F)[C@@H](O)C[C@]3(C)[C@]2(C(=O)CCl)O1 [Halcinonide] | 2.7 | –
12 | CC(=O)OCC(=O)[C@@]1(O)CC[C@H]2[C@@H]3CCC4=CC(=O)CC[C@]4(C)[C@H]3[C@@H](O)C[C@@]21C [Hydrocortisone acetate] | 1.68 | –
13 | C[C@]12CCC(=O)C=C1CC[C@@H]1[C@@H]2[C@@H](O)C[C@@]2(C)[C@H]1CC[C@]2(O)C(=O)CO [Hydrocortisone] | 1.78 | IL-6 production following challenge [4]: increased production of IL-6; TNF-α training effect with TLR4 and TLR1/2 agonists ([4]; 10 μM, challenge 100 ng/mL LPS or Pam3, n=30): Training effects were observed; training (TNF-α after Pam3) after 2DG pre-treatment [1, 5]: significant inhibition of training
14 | Oc1ccc(O)cc1 [Hydroquinone] | 1.68 | training (TNF-α after Pam3) after 2DG pre-treatment [1, 5]: not susceptible to suppression of training; cytokine MFIs among TNF-α+ neutrophils and IL-6+ eosinophils [3, 6]: significant increases; number of TNF-α+ and IL-6+ cells [3, 6]: no increase
15 | C=C1CCC2C(CC2(C)C)C(=O)CCC1O (centres unmarked) [Isokobusone] | 1.66 | –
16 | COc1ccc(OC)c(C(O)C(C)N)c1 (centres unmarked) [Methoxamine hydrochloride] | 2.21 | –
17 | O=c1c(O)c(-c2cc(O)c(O)c(O)c2)oc2cc(O)cc(O)c12 [Myricetin] | 2.19 | IL-6 production following challenge [4]: increased production of IL-6; training (TNF-α after Pam3) after 2DG pre-treatment [1, 5]: not susceptible to suppression of training; cell count in the peritoneal lavage ([3]; 2 h after challenge): increased cell count; number of TNF-α+ and IL-6+ eosinophils [3, 6]: significant increases
18 | CC(=O)N[C@@H](CC(=O)O)C(=O)O [N-Acetylaspartic acid] | 1.6 | –
19 | CC(C)[C@H]1CC[C@H](C(=O)N[C@H](Cc2ccccc2)C(=O)O)CC1 [Nateglinide] | 1.6 | –
20 | CC(C)=CCC/C(C)=C\CO [Nerol] | 1.73 | training (TNF-α after Pam3) after 2DG pre-treatment [1, 5]: not susceptible to suppression of training
21 | NC(=O)N/N=C/c1ccc([N+](=O)[O-])o1 [Nitrofurazone] | 1.69 | –
22 | CN1CCCN=C1COC(=O)C(O)(c1ccccc1)C1CCCCC1 (centres unmarked) [Oxyphencyclimine hydrochloride] | 1.67 | –
23 | C[C@]12C=CC(=O)C=C1CC[C@@H]1[C@@H]2[C@@H](O)C[C@@]2(C)[C@H]1CC[C@]2(O)C(=O)CO [Prednisolone] | 2.06 | –
24 | CCC(C)(C)C(=O)O[C@H]1C[C@@H](C)C=C2C=C[C@H](C)[C@H](CC[C@@H]3C[C@@H](O)CC(=O)O3)[C@H]21 [Simvastatin] | 1.61 | –
25 | N#Cc1c(Cl)c(Cl)c(Cl)c(C#N)c1Cl [Tetrachloroisophthalonitrile] | 1.61 | –
26 | CC1(C)C(C(Cl)Cl)C2(Cl)C(Cl)C(Cl)C1(Cl)C2(Cl)Cl (centres unmarked) [Toxaphene] | 1.63 | –
27 | CC(=O)OCC(=O)[C@@]1(O)[C@H](OC(C)=O)C[C@H]2[C@@H]3CCC4=CC(=O)C=C[C@]4(C)[C@@]3(F)[C@@H](O)C[C@@]21C [Triamcinolone diacetate] | 1.73 | –
28 | C[C@]12C=CC(=O)C=C1CC[C@H]1[C@@H]3C[C@@H](O)[C@](O)(C(=O)CO)[C@@]3(C)C[C@H](O)[C@@]12F [Triamcinolone] | 1.76 | –
29 | Cc1cc2cc3c(C)cc(=O)oc3c(C)c2o1 [Trioxsalen] | 1.66 | –
30 | Cc1cc(CC(=O)O)n(C)c1C(=O)c1ccc(Cl)cc1 [Zomepirac Sodium] | 1.7 | –
